Source: ChEMBL document CHEMBL5230159, “Targeting Metalloenzymes by Boron-Containing Metal-Binding Pharmacophores” (J Med Chem, 2021)
Values belong to the compound of their own block, whether it stands above or below them.

What was measured:
Arginase-1 [1] = target: T1, Arginase-1 (Rattus norvegicus, UniProt P07824); test: Binding affinity to rat Arg I
T1 sequence (P07824 whole entry): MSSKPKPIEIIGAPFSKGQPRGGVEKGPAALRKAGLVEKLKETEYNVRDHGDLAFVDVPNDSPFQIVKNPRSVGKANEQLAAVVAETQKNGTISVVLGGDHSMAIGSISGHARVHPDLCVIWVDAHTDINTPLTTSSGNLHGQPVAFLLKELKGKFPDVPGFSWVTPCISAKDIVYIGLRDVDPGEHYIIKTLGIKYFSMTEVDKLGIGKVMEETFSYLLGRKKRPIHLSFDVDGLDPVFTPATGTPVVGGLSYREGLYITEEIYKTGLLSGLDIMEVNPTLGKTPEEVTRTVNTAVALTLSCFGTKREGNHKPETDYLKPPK

[2] = target: T2, 3',5'-cyclic-AMP phosphodiesterase 4B (Homo sapiens, UniProt Q07343); test: Inhibition of human PDE4 catalytic domain expressed in Escherichia coli
[3] = Inhibition of Escherichia coli NDM-1
[4] = Inhibition of Escherichia coli VIM-2
[5] = Inhibition of Escherichia coli IMP-1
BlaVIM-1 = BlaVIM-1 (Escherichia coli, UniProt Q8GDC1); test: Inhibition of Escherichia coli VIM-1
[6] = target: T2, 3',5'-cyclic-AMP phosphodiesterase 4B; test: Inhibition of human PDE4 catalytic domain expressed in Escherichia coli at 10 uM relative to control
[7] = Clearance in C57BL/6 mouse at 25 to 50 mg/kg, po by LC-MS/MS analysis; format: ADME, organism-based; details: in vivo, dose 25-50 mg/kg
[8] = Oral bioavailability in C57BL/6 mouse at 25 to 50 mg/kg by LC-MS/MS analysis; format: ADME, organism-based; details: in vivo, dose 25-50 mg/kg
Arginase-1 [9] = target: T3, Arginase-1 (Homo sapiens, UniProt P05089); test: Binding affinity to human Arg I
T3 sequence (P05089 whole entry): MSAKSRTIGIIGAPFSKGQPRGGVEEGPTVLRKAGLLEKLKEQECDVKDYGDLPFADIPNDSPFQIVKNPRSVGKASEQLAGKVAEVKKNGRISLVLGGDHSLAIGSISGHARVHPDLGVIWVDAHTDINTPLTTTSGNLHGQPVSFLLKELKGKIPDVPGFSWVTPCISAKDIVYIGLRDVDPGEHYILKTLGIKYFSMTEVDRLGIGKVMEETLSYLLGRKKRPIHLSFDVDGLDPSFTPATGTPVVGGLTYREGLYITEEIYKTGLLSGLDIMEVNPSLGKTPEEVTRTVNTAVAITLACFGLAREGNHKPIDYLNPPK

[10] = Inhibition of beta-lactamase TEM-1 (unknown origin); parameters: species or system Bacteria
Autotaxin [11] = target: T4, Autotaxin (Homo sapiens, UniProt Q13822); test: Inhibition of human recombinant ATX using ABTS as substrate by absorbance based analysis
[12] = target: T5, Arginase-2, mitochondrial (Homo sapiens, UniProt P78540); test: Binding affinity to human Arg II
T5 sequence (P78540 whole entry): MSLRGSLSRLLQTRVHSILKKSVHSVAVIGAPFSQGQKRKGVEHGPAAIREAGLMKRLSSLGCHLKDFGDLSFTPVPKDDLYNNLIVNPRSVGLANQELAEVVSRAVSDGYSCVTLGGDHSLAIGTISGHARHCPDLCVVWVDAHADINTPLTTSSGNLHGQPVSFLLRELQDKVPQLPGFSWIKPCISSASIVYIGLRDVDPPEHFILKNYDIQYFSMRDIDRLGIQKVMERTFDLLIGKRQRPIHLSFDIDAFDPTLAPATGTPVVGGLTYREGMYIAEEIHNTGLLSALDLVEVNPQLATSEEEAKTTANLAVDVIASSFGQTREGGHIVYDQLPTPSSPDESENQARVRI

Arginase-1 [13] = target: T1, Arginase-1; test: Inhibition of rat liver arginase using L-arginine as substrate incubated for 10 mins followed by substrate addition by scintillation counting analysis; format: tissue-based
Carbonic anhydrase 1 = Carbonic anhydrase 1 (Homo sapiens, UniProt P00915); test: Binding affinity to human CA1 assessed as inhibition constant
Carbonic anhydrase 9 = Carbonic anhydrase 9 (Homo sapiens, UniProt Q16790); test: Binding affinity to human CA9 assessed as inhibition constant
Carbonic anhydrase 12 = Carbonic anhydrase 12 (Homo sapiens, UniProt O43570); test: Binding affinity to human CA12 assessed as inhibition constant
Arginase-1 [14] = target: T3, Arginase-1; test: Inhibition of human Arg I
Autotaxin [15] = target: T4, Autotaxin; test: Inhibition of human recombinant ATX

T2 sequence (Q07343 whole entry, the tested form may be a part): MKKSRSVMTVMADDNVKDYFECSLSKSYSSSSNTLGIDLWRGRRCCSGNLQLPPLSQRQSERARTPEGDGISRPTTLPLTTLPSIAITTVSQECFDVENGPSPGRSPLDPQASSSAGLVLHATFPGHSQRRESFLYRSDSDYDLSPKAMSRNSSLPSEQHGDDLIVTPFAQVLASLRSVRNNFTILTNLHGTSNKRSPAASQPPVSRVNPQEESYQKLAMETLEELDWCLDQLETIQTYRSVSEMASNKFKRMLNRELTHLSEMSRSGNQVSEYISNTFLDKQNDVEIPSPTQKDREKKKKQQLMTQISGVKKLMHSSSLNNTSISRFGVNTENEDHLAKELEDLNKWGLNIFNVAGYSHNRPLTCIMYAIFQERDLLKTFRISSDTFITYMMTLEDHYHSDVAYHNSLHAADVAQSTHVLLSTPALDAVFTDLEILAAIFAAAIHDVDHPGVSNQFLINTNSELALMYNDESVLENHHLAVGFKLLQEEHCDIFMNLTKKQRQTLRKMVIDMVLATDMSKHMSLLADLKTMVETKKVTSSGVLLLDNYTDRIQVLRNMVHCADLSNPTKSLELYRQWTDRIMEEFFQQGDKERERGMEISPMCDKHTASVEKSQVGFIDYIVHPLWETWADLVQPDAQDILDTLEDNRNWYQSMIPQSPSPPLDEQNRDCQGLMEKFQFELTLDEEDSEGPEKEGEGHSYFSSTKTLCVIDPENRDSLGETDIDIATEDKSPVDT
Sequence of Carbonic anhydrase 12 (O43570 whole entry): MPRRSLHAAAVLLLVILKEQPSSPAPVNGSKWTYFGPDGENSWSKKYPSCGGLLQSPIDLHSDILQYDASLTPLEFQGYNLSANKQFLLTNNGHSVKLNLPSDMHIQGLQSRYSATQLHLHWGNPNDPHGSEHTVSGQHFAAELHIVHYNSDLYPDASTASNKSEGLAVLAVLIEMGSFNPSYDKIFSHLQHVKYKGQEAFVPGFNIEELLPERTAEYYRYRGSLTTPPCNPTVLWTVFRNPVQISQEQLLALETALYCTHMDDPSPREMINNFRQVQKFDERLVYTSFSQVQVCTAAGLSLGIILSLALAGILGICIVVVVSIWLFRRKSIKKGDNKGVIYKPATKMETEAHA
Sequence of Carbonic anhydrase 1 (P00915 whole entry): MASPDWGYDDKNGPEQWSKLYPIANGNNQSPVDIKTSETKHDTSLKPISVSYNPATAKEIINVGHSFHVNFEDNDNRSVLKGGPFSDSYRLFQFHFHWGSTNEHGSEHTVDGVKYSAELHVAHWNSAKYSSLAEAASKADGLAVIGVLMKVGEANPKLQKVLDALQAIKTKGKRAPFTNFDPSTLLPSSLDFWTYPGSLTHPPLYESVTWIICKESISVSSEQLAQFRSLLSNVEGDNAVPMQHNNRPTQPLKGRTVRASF

CL/F [7]: 10 mL/min/kg | bioavailability [8]: 91%
Structure (SMILES): C[C@H](N)C(=O)N1C[C@H](CCCB(O)O)[C@](N)(C(=O)O)C1

IC50 [10]: 0.013 µM
Structure (SMILES): CC(=O)N[C@H]1Cc2cccc(C(=O)O)c2OB1O

IC50 (Autotaxin [11]): > 0.005 µM
Structure (SMILES): O=C1S/C(=C\c2ccc(OCc3ccccc3B(O)O)cc2)C(=O)N1Cc1ccc(F)cc1

IC50 [2]: 0.11 µM
Structure (SMILES): N#Cc1ccc(Oc2ccc3c(c2)COB3O)cc1 [CRISABOROLE]

Kd (Arginase-1 [9]): 60 µM
Structure (SMILES): N[C@@H](CCCC[N+](=O)[O-])C(=O)O

Ki [12]: 0.089 µM
Structure (SMILES): OB(O)/C=C/Cc1ccccc1

IC50 (Arginase-1 [13]): 6000 µM
Structure (SMILES): NC(Cc1ccc(B(O)O)cc1)C(=O)O (stereo not drawn)

Ki (Carbonic anhydrase 1): 0.098 µM | Ki (Carbonic anhydrase 9): 0.414 µM | Ki (Carbonic anhydrase 12): 0.069 µM
Structure (SMILES): COc1ccc(C)cc1NC(=O)Nc1ccc2c(c1)B(O)OC2

IC50 [2]: 0.06 µM
Structure (SMILES): N#Cc1ccc(Oc2ccc3c(c2)COB3O)cc1C#N

IC50 (Autotaxin [15]): 0.025 µM
Structure (SMILES): O=C1N=C(N2CCN(Cc3ccc(C(=O)O)cc3)CC2)S/C1=C\c1ccc(Cl)c(Cl)c1

IC50 [2]: 0.18 µM
Structure (SMILES): N#Cc1ccc(Oc2ccc3c(c2)COB3O)nc1

The remaining lines, values behind:

Structure (SMILES): N[C@@H](CCCCC=O)C(=O)O
Ki (Arginase-1 [1]): 60 µM

Structure (SMILES): CC(=O)OCCOc1cc(Oc2ccc3c(c2)COB3O)ccc1C#N
IC50 [2]: 0.0007 µM

Structure (SMILES): O=C(O)c1cccc2c1OB(O)[C@@H](NC(=O)C1CCCCC1)C2
IC50 [3]: 2.04 µM | IC50 [4]: 0.051 µM

Structure (SMILES): NCCN[C@H]1CC[C@H](CC(=O)N[C@H]2Cc3cccc(C(=O)O)c3OB2O)CC1
IC50 [3]: 0.01 µM | IC50 [5]: 2.5 µM | IC50 [4]: 0.0005 µM | IC50 (BlaVIM-1): 0.0079 µM

Structure (SMILES): CCOc1nc(-c2cncc(C3COB(O)C3)c2)c(F)cc1OC (stereo not drawn)
IC50 [2]: 0.00012 µM

Structure (SMILES): O=C(O)c1ccc(Oc2ccc3c(c2)COB3O)nc1
IC50 [2]: > 0.01 µM | inhibition [6]: 5%

Structure (SMILES): Nc1nccn1CCC[C@H](N)C(=O)O
Ki (Arginase-1 [9]): 30000 µM

Structure (SMILES): N[C@@H](CC/C=C/B(O)O)C(=O)O
IC50 (Arginase-1 [13]): 15 µM

Structure (SMILES): NC(CCCCC(=O)O)C(=O)O (stereo not drawn)
Kd (Arginase-1 [1]): 30000 µM

Structure (SMILES): N#Cc1ccc(Oc2ccc3c(c2)COB3O)cc1OCCO
IC50 [2]: 0.024 µM

Structure (SMILES): OB1OCc2ccc(NC(=S)Nc3ccc(C(F)(F)F)cc3)cc21
Ki (Carbonic anhydrase 9): 0.093 µM | Ki (Carbonic anhydrase 12): 0.071 µM

Structure (SMILES): N[C@@H](CCCCB(O)O)C(=O)O
IC50 (Arginase-1 [14]): 1.45 µM

Structure (SMILES): CCOC(=O)c1ccc(Oc2ccc3c(c2)COB3O)nc1
IC50 [2]: 0.047 µM
